Measured values taken from PMC2602975, “Clofazimine Inhibits Human Kv1.3 Potassium Channel by Perturbing Calcium Oscillation in T Lymphocytes” (PLoS ONE, 2008).

What was measured:
Kv1.3 potassium channel = target: T1, Kv1.3 potassium channel (Homo sapiens, UniProt P22001); assay: IC50 from whole-cell patch clamp in Jurkat T cells; type: cell-based
T1 construct: gene KCNA3; His-Kv1.3 expressed in 293T cells and purified (gel shift); endogenous Kv1.3 in Jurkat T cells (patch clamp)

mouse Kv1.3 = target: T2, mouse Kv1.3 (Mus musculus, UniProt P16390); assay: whole-cell patch clamp; type: cell-based
T2 construct: gene Kcna3; mouse Kv1.3 stably expressed in L929 cells
T2 sequence (P16390 whole entry): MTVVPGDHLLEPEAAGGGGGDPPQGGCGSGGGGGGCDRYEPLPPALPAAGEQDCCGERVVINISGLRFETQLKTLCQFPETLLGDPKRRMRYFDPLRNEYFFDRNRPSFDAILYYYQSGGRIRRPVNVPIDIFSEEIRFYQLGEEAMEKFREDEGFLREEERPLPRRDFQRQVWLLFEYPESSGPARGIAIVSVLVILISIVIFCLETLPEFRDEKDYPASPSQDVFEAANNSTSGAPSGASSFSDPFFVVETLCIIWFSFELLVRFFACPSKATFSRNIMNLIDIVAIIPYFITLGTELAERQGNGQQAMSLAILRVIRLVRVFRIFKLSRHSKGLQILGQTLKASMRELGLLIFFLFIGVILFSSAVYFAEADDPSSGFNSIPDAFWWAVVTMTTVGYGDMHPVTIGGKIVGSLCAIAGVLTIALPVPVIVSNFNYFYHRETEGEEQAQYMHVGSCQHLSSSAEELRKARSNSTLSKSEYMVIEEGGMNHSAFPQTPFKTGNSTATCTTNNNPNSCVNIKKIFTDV

T1 sequence (P22001 whole entry): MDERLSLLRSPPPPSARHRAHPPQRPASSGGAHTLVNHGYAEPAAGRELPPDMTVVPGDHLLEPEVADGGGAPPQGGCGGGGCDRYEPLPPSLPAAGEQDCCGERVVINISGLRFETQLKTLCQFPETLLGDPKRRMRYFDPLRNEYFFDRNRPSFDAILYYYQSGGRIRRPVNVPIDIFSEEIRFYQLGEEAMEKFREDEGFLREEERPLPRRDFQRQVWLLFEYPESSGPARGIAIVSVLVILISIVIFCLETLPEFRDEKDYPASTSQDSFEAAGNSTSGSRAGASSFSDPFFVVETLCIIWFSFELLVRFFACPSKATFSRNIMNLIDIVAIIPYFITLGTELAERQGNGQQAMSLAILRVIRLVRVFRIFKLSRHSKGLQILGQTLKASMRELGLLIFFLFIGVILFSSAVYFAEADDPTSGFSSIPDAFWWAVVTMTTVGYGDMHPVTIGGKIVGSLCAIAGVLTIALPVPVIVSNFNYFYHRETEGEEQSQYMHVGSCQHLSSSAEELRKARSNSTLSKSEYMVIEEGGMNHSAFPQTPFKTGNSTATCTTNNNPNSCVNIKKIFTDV

IC50 (Kv1.3 potassium channel): 300 nM
IC50 (mouse Kv1.3): 470 nM
Compound: CC(C)/N=c1\cc2n(-c3ccc(Cl)cc3)c3ccccc3nc-2cc1Nc1ccc(Cl)cc1 [CLF, clofazimine]
